Measured values as given in patent US20040204577A1, “Novel peptide-forming enzyme gene” (Ajinomoto Co., Inc., priority 2003, published 2004).
Where a SMILES comes first, the peptide text is derived from it.

What was measured:
[1] = tested on: microbial cells of Empedobacter brevis strain FERM BP-8113; test: Production of peptide using microbial cells; format: cell-based; conditions: 1 mL cell suspension (100 g/L) + 1 mL buffer with 200 mM carboxy component (hydrochloride) and 400 mM amino acid; borate buffer pH 9.0, 10 mM EDTA; 18° C., 2 hours
Protocol: A 50 mL medium (pH 6.2) containing 5 grams (g) of glucose, 5 g of ammonium sulfate, 1 g of monopotassium phosphate, 3 g of dipotassium phosphate, 0.5 g of magnesium sulfate, 10 g of yeast extract and 10 g of peptone in 1 liter (L) was transferred to a 500 mL Sakaguchi flask and sterilized at 115° C. for 15 minutes. This medium was then inoculated with one loopful cells of Empedobacter brevis strain FERM BP-8113 (Depositary institution: the independent administrative corporation, National Institute of Advanced Industrial Science and Technology, International Patent Organism Depositary, Address of depositary institution: Chuo Dai-6, 1-1 Higashi 1-Chome, Tsukuba-shi, Ibaraki-ken, Japan, International deposit transfer date: Jul. 8, 2002) that had been cultured at 30° C. for 16 hours in the same medium, followed by shake culturing at 30° C. for 16 hours and 120 strokes/min.

[2] = tested on: peptide-forming enzyme (Mono S fraction enzyme); test: Enzyme substrate specificity (1)-(10), (13), (14): peptide production; format: biochemical, Empedobacter brevis; conditions: pH 9.0, 25° C., 3 hours; for Produced peptide: L-amino acid ester 100 mM, peptide (amine component) 150 mM
In short: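 Mono S enzyme fraction in 100 mM borate buffer (pH 9.0) with 10 mM EDTA and 100 mM carboxy component (amino acid methyl esters or amides); amine components (L-glutamine, amino acids, amino acid amides or methylamine) at 150 mM, or 200 mM L-glutamine with varied esters. Reactions ran at 25° C for 2–3 hours; 0.1% Tween-80 added for Trp/Tyr-OMe.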

[3] = tested on: enzyme derived from Sphingobacterium sp. strain FERM BP-8124 (SP-Sepharose HP fraction enzyme); test: Enzyme substrate specificity (11), (12): peptide production; format: biochemical; parameters: key to Produced peptide (Table 15-1) / Produced peptide (Table 15-3) / Produced peptide (Table 15-4): +: those peptides for which production was confirmed but which were unable to be quantified due to the absence of a standard; a trace amount; conditions: carboxy component 100 mM, 0.33 units enzyme, pH 9.0, 25° C., 1.5 hours; for Produced peptide (Table 15-3) / Produced peptide (Table 15-4) / Produced peptide (Table 15-1) / Produced peptide (Table 16, oligopeptide): amine component 150 mM; for Produced peptide (Table 15-4): amides and methylamine
Source text: Substrate specificity was examined for enzyme derived from Sphingobacterium sp. strain FERM BP-8124 (Depositary institution: the independent administrative corporation, National Institute of Advanced Industrial Science and Technology, International Patent Organism Depositary, Address of depositary institution: Chuo Dai-6, 1-1 Higashi 1-Chome, Tsukuba-shi, Ibaraki-ken, Japan, International deposit date: […] The amounts of various peptides formed in this reaction are shown in Table 15. The “+” mark indicates those peptides for which production was confirmed but which were unable to be quantified due to the absence of a standard, while “tr” indicates a trace amount. Furthermore, Tween-80 was added to the reaction system to a final concentration of 0.1% in the case of using L-Tyr-OMe. In addition, hydrochloride salts were used for all carboxy components. Substrate specificity with respect to oligopeptide production was examined for enzyme derived from Sphingobacterium sp. strain FERM BP-8124 (Depositary institution: the independent administrative corporation, National Institute of Advanced Industrial Science and Technology, International Patent Organism Depositary, Address of depositary institution: Chuo Dai-6, 1-1 Higashi 1-Chome, Tsukuba-shi, Ibaraki-ken, Japan, International deposit date: […] The amounts of each oligopeptide formed in this reaction are shown in Table 16. Furthermore, hydrochloride salts were used for all the carboxy components.

[4] = tested on: peptide-forming enzyme (Mono S fraction enzyme); test: Enzyme inhibitors: effects on the production of L-alanyl-L-glutamine; format: biochemical, Empedobacter brevis
[5] = Comparison of ability to catalyze peptide formation with known enzymes; format: biochemical; conditions: for L-Ala-L-Gln production rate: 100 mM L-alanine methyl ester hydrochloride, 200 mM L-glutamine, pH 9.0, 25° C., enzyme added 0.02-3.60 protein mg/ml as in Table 14; for Ratio of L-Ala-L-Gln production rate per enzyme unit weight: enzyme of present invention = 100.0
Source text: The enzyme homogeneously purified in Example 3 was used as a source of the present enzyme of the present invention.

[6] = L-amino acid methyl ester hydrochloride 100 mM, L-amino acid 150 mM
[7] = 100 mM L-alanine methyl ester hydrochloride, L-amino acid 150 mM
[8] = L-amino acid amide hydrochloride as carboxy component 100 mM, L-amino acid 150 mM
[9] = L-alanine methyl ester hydrochloride 100 mM, L-amino acid amide hydrochloride 150 mM

## N[C@@H](CO)C(=O)N[C@@H](CO)C(=O)O [L-Ser-L-Ser] (H-Ser-Ser-OH)
[1]
  Formed peptide: 29.0 mM
[2]; [6]
  Formed peptide: 38.0 mM
[3]
  Produced peptide (Table 15-3): 9.9 mM

## O=C(O)CI [Monoiodoacetate]
[4]; pH 9
  Relative activity of L-Ala-L-Gln production: 101%

## Chymopapain: thiol endopeptidase described in EP 359399B1, purified enzyme manufactured by Sigma
[5]
  L-Ala-L-Gln production rate: 0.0100 mM/min
  Ratio of L-Ala-L-Gln production rate per enzyme unit weight: 0.0013

## C[C@H](N)C(=O)N[C@@H](Cc1cnc[nH]1)C(=O)O [L-Ala-L-His] (H-Ala-His-OH)
[1]
  Formed peptide: 52.1 mM
[2]; [7]
  Formed peptide: 66.9 mM
[2]; [8]
  Formed peptide: 3.9 mM
[3]
  Produced peptide (Table 15-4): tr
  Produced peptide (Table 15-1): 73.6 mM

## O=S(=O)(F)Cc1ccccc1 [Phenylmethylsulfonyl fluoride, phenylmethylsulfonyl fluoride]
[4]; inhibitor at 10 mM, borate buffer pH 9.0, 25° C., 5 minutes, 100 = absence of enzyme inhibitor
  Relative activity of L-Ala-L-Gln production: 115%
[4]; serine enzyme inhibitors at 10 mM
  Inhibition of the enzyme (in words): not inhibited

## Ficin
[5]
  L-Ala-L-Gln production rate: 0.0096 mM/min
  Ratio of L-Ala-L-Gln production rate per enzyme unit weight: 0.0017

## CSCC[C@H](N)C(=O)N[C@@H](Cc1ccccc1)C(=O)O [L-Met-L-Phe] (H-Met-Phe-OH)
[1]
  Formed peptide: 28.5 mM
[3]
  Produced peptide (Table 15-3): 8.9 mM

## C[C@H](N)C(=O)N[C@@H](Cc1ccccc1)C(=O)O [L-Ala-L-Phe]
[1]
  Formed peptide: 62.4 mM
[2]; [7]
  Formed peptide: 74.4 mM
[3]
  Produced peptide (Table 15-1): 69.5 mM

## CC(C)C[C@H](NC(=O)[C@H](C)N)C(=O)O [L-Ala-L-Leu] (H-Ala-Leu-OH)
[1]
  Formed peptide: 38.2 mM
[2]; [7]
  Formed peptide: 45.3 mM
[3]
  Produced peptide (Table 15-1): 33.0 mM

## CSCC[C@H](NC(=O)[C@@H](N)C(C)C)C(=O)O [L-Val-L-Met] (H-Val-Met-OH)
[1]
  Formed peptide: 10.5 mM
[2]; [6]
  Formed peptide: 10.3 mM
[3]
  Produced peptide (Table 15-3): 6.8 mM

## Bromelain
[5]
  L-Ala-L-Gln production rate: 0.0062 mM/min
  Ratio of L-Ala-L-Gln production rate per enzyme unit weight: 0.0010

## NCC(=O)N[C@@H](Cc1cnc[nH]1)C(=O)O [Gly-L-His] (H-Gly-His-OH)
[1]
  Formed peptide: 22.1 mM
[2]; [6]
  Formed peptide: 31.6 mM
[3]
  Produced peptide (Table 15-3): 36.2 mM

## C[C@H](N)C(=O)N[C@@H](CO)C(=O)O [L-Ala-L-Ser] (H-Ala-Ser-OH)
[1]
  Formed peptide: 51.3 mM
[2]; [7]
  Formed peptide: 62.5 mM
[3]
  Produced peptide (Table 15-1): 43.8 mM

## CC(C)C[C@H](NC(=O)[C@@H](N)[C@@H](C)O)C(=O)O [L-Thr-L-Leu] (H-Thr-Leu-OH)
[1]
  Formed peptide: 23.0 mM
[2]; [6]
  Formed peptide: 28.4 mM
[3]
  Produced peptide (Table 15-3): 15.3 mM

## NCC(=O)N[C@@H](Cc1ccccc1)C(=O)O [Gly-L-Phe] (H-Gly-Phe-OH)
[2]; [6]
  Formed peptide: 44.0 mM
[2]; amount of enzyme 0.1 unit
  Produced peptide (oligopeptide): 17.3 mM
[3]
  Produced peptide (Table 15-3): 20.0 mM

## C[C@H](N)C(=O)N[C@@H](CCCN=C(N)N)C(=O)O [L-Ala-L-Arg] (H-Ala-Arg-OH)
[1]
  Formed peptide: 72.1 mM
[2]; [7]
  Formed peptide: 88.0 mM
[3]
  Produced peptide (Table 15-1): 72.2 mM

## L-Ala-Gly-L-Ala
[2]
  Produced peptide: 25.9 mM
[3]
  Produced peptide (Table 16, oligopeptide): 35.1 mM

## L-Ala-L-Ala-L-Ala
[2]
  Produced peptide: 57.5 mM
[3]
  Produced peptide (Table 16, oligopeptide): 41.1 mM

## C[C@H](N)C(=O)N[C@@H](C)C(N)=O [L-Ala-L-Ala-NH2] (H-Ala-Ala-NH2)
[2]; [9]
  Formed peptide: 8.3 mM
[3]
  Produced peptide (Table 15-4): 9.2 mM

## C[C@H](N)C(=O)N[C@@H](CC(N)=O)C(=O)O [L-Ala-L-Asn] (H-Ala-Asn-OH)
[2]; [7]
  Formed peptide: 65.5 mM
[3]
  Produced peptide (Table 15-1): 52.3 mM

## C[C@H](N)C(=O)N[C@@H](Cc1ccccc1)C(N)=O [L-Ala-L-Phe-NH2]
[2]; [9]
  Formed peptide: 12.2 mM
[3]
  Produced peptide (Table 15-4): 27.1 mM

## CC[C@H](C)[C@H](NC(=O)[C@H](C)N)C(=O)O [L-Ala-L-Ile] (H-Ala-Ile-OH)
[2]; [7]
  Formed peptide: 33.9 mM
[3]
  Produced peptide (Table 15-1): 24.7 mM

## NCC(=O)N[C@@H](CCCN=C(N)N)C(=O)O [Gly-L-Arg] (H-Gly-Arg-OH)
[2]; [6]
  Formed peptide: 25.5 mM
[3]
  Produced peptide (Table 15-3): 17.9 mM

## CSCC[C@H](NC(=O)[C@H](C)N)C(=O)O [L-Ala-L-Met] (H-Ala-Met-OH)
[1]
  Formed peptide: 68.3 mM
[2]; [7]
  Formed peptide: 83.3 mM
[2]; [8]
  Formed peptide: 3.4 mM
[3]
  Produced peptide (Table 15-4): tr
  Produced peptide (Table 15-1): 86.9 mM

## CC[C@H](C)[C@H](N)C(=O)N[C@@H](CCSC)C(=O)O [L-Ile-L-Met] (H-Ile-Met-OH)
[1]
  Formed peptide: 8.3 mM
[2]; [6]
  Formed peptide: 10.0 mM
[3]
  Produced peptide (Table 15-3): 5.1 mM

## C[C@H](N)C(=O)N[C@@H](Cc1ccc(O)cc1)C(=O)O [L-Ala-L-Tyr] (H-Ala-Tyr-OH)
[2]; [7]
  Formed peptide: 17.6 mM
[3]
  Produced peptide (Table 15-1): 11.1 mM

## NC(=O)CC[C@H](NC(=O)[C@@H](N)CO)C(=O)O [L-Ser-L-Gln] (H-Ser-Gln-OH)
[2]; L-amino acid methyl ester hydrochloride 100 mM, 150 mM L-glutamine
  Formed peptide: 24.0 mM
[3]; L-Gln 150 mM
  Produced peptide (Table 15-2): 12.9 mM

B1: Papain: thiol endopeptidase described in EP 359399B1, purified enzyme manufactured by Sigma (protein, UniProt P00784 134-345, looked up)
Papain: IPEYVDWRQKGAVTPVKNQGSCGSCWAFSAVVTIEGIIKIRTGNLNEYSEQELLDCDRRSYGCNGGYPWSALQLVAQYGIHYRNTYPYEGVQRYCRSREKGPYAAKTDGVRQVQPYNEGALLYSIANQPVSVVLEAAGKDFQLYRGGIFVGPCGNKVDHAVAAVGYGPNYILIKNSWGTGWGENGYIRIKRGTGNSYGVCGLYTSSFYPVKN
[5]
  L-Ala-L-Gln production rate: 0.0106 mM/min
  Ratio of L-Ala-L-Gln production rate per enzyme unit weight: 0.0021

B2: Carboxypeptidase Y: known enzyme described in EP 278787A1, purified enzyme manufactured by Sigma (protein, UniProt P00729 112-532, looked up)
Carboxypeptidase Y: KIKDPKILGIDPNVTQYTGYLDVEDEDKHFFFWTFESRNDPAKDPVILWLNGGPGCSSLTGLFFELGPSSIGPDLKPIGNPYSWNSNATVIFLDQPVNVGFSYSGSSGVSNTVAAGKDVYNFLELFFDQFPEYVNKGQDFHIAGESYAGHYIPVFASEILSHKDRNFNLTSVLIGNGLTDPLTQYNYYEPMACGEGGEPSVLPSEECSAMEDSLERCLGLIESCYDSQSVWSCVPATIYCNNAQLAPYQRTGRNVYDIRKDCEGGNLCYPTLQDIDDYLNQDYVKEAVGAEVDHYESCNFDINRNFLFAGDWMKPYHTAVTDLLNQDLPILVYAGDKDFICNWLGNKAWTDVLPWKYDEEFASQKVRNWTASITDEVAGEVKSYKHFTYLRVFNGGHMVPFDVPENALSMVNEWIHGGFSL
[5]
  L-Ala-L-Gln production rate: 0.0257 mM/min
  Ratio of L-Ala-L-Gln production rate per enzyme unit weight: 0.0191
